US8629284B2, “Chemical compounds” (Syngenta Crop Protection, LLC, priority 2008, dated 2014)

Tests used:
[1] = system: Myzus persicae; experiment: B2: Myzus persicae (green peach aphid), mixed population, feeding/residual contact activity, preventive; format: in vivo; details: foliar, 144 h, sunflower leaf discs sprayed with 200 ppm, 6 days incubation, read-out: control of Myzus persicae (mortality)
Description: B2: Myzus persicae (green peach aphid) (mixed population, feeding/residual contact activity, preventive)
Sunflower leaf discs were placed on agar in a 24-well microtiter plate and sprayed with test solutions of 200 ppm. After drying, the leaf discs were infested with an aphid population of mixed ages. After an incubation period of 6 days, samples were checked for mortality and special effects (e.g. phytotoxicity).

[2] = system: Myzus persicae; experiment: B3: Myzus persicae (green peach aphid), mixed population, systemic/feeding activity, curative; format: in vivo; details: 144 h, roots of infested pea seedlings in test solution of 24 ppm, 6 days after introduction, read-out: control of Myzus persicae (mortality)
Source text: B3: Myzus persicae (green peach aphid) (mixed population, systemic/feeding activity, curative)
Roots of pea seedlings, infested with an aphid population of mixed ages, were placed directly in the test solutions of 24 ppm. 6 days after introduction, samples were checked for mortality and special effects on the plant.

SMILES	mortality at 200 ppm [1]	mortality at 24 ppm [2]
CCNC1=NS(=O)(=O)c2cccc(F)c21 [Compound P1.15, N-Ethyl-4-fluoro-1,2-benzisothiazol-3-amine 1,1-dioxide]	≥ 65%	≥ 80%
N=C1c2c(F)cccc2S(=O)(=O)N1CC1CC1 [Compound P2.3, 4-Fluoro-2-cyclopropylmethyl-1,2-benzisothiazol-3(2H)-imine 1,1-dioxide]	–	≥ 80%
